This assay has as its target T1, T1R1/T1R3 umami receptor (Homo sapiens, UniProt Q7RTX0+Q7RTX1, C757R).
T1 construct: expressed in transfected cells; host or cells: HEK293 cells, transiently transfected (Lipofectamine 2000)
T1 sequence (Q7RTX1 21-841): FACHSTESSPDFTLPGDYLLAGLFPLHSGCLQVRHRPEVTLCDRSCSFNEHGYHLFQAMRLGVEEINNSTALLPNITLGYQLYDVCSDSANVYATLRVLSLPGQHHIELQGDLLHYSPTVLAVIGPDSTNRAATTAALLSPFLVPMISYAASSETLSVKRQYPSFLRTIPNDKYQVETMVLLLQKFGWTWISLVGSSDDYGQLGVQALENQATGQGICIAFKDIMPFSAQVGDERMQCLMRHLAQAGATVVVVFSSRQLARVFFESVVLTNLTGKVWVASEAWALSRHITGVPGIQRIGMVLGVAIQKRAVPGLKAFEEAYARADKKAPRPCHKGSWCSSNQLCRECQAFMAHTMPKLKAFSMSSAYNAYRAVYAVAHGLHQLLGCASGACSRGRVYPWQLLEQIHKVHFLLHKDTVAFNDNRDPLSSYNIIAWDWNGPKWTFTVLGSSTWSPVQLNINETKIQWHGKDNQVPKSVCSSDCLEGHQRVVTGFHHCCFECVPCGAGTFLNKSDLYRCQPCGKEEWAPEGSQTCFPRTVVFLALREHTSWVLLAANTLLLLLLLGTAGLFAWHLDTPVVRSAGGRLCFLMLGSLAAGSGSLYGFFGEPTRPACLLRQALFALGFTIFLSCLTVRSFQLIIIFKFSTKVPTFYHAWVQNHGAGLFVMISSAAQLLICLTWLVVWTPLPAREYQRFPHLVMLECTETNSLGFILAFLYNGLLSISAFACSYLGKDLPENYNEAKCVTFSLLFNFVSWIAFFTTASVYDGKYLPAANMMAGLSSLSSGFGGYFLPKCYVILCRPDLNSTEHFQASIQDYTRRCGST
T1 sequence (Q7RTX0 with tags, fused parts or gaps C757R): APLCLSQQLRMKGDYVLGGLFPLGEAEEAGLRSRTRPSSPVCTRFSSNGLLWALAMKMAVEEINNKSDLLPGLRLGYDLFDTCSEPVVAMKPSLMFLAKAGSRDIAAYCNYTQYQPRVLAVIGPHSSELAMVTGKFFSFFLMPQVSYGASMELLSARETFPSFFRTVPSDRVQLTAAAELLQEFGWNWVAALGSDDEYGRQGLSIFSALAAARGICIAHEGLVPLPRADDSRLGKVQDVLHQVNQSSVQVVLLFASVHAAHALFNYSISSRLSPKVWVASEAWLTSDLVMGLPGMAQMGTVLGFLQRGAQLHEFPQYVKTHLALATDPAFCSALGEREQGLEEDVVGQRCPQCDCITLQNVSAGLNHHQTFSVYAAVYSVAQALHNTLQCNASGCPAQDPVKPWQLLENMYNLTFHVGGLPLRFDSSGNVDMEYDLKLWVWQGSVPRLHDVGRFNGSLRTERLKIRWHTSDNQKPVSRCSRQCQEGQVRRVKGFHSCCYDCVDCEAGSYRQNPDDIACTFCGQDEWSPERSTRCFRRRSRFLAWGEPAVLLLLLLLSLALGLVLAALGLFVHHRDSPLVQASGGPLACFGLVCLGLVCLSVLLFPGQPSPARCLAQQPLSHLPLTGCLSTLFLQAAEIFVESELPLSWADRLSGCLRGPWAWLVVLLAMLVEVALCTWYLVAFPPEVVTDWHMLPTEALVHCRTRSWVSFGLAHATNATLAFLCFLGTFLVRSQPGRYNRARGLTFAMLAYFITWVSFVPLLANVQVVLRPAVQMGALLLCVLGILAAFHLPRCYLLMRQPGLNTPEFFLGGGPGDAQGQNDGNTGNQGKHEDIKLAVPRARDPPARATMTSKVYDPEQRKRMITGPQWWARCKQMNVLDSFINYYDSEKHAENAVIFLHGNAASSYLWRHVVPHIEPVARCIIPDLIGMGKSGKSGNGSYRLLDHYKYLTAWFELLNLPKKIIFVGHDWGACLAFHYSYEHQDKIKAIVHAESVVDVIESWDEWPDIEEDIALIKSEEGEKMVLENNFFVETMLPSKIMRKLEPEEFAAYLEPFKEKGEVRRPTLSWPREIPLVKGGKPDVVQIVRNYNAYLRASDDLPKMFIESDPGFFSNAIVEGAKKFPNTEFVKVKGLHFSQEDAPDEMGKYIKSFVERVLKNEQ
As to the kind of experiment: BRET assay (T1R1/T1R3-Rluc and GFP-2-β-arrestin-2 in HEK293 cells). It is filed as cell-based. Set-up: key: +: A BRET signal above the values achieved for buffer alone was defined as umami receptor-specific. The conditions noted are these: MSG 10 mM. On the procedure: FIG. 2 Activation of the T1R1/T1R3 umami receptor expressed in HEK293-Gα15 cells as measured by BRET assays as described in Example 2. Test solutions (or buffer) as indicated and substrate were added to the cells. The BRET signals were determined as the ratio between readings taken at the acceptor wavelength (515 nm) divided by the signals determined for the donor (400 nm). To correct for background signal due to overlap of donor emission at the acceptor wavelength, the BRET ratio was determined in parallel for cells expressing the donor alone (T1R1/T1R3-Rluc). This BRET background value was subtracted from the BRET value obtained for the cells expressing both BRET partners (BRET=BRET ratio−background ratio). A BRET signal above the values achieved for buffer alone was defined as umami receptor-specific (see also table 2B).
The extracts or crude mixtures described below are examples for natural samples unsuitable for testing with a calcium-based receptor assay due to their high non-specific background signal. They are from different origin and are selected to illustrate a wide range of potential test samples. […] Calcium-Based Receptor Assay: Activation of the T1R1/T1R3 umami receptor expressed in HEK293-Gα15 cells has been measured by monitoring the release of intracellular calcium. […]
(BRET reads energy transfer from a luciferase to a nearby fluorophore.)

Take `N[C@@H](CCC(=O)O)C(=O)[O-].[Na+]` [MSG, Monosodium glutamate]: the “T1R1/T1R3 receptor-specific signal, BRET assay” value is given as “+”.

Source of the values: patent US8795977B2, “Method for screening a potential modulator compound of a taste receptor” (Conopco, Inc., priority 2009, dated 2014).
